Source: patent publication US10670605B2, “Cysteine reactive probes and uses thereof” (The Scripps Research Institute, priority 2015, dated 2020)
Each block holds one compound with its values, some of them ahead of it.

Key:
Test in all cases: Competitive isoTOP-ABPP in situ (fragment-treated cells)
Format in all cases: cell-based
[1] = biological target: cysteines in MDA-MB-231 and Ramos cells (Homo sapiens, UniProt Q00765)
[2] = biological target: T1, cysteines in MDA-MB-231 and Ramos cells (Homo sapiens, UniProt Q07065); conditions: 200 μM, insitu, 231
T1 sequence (Q07065 1-602): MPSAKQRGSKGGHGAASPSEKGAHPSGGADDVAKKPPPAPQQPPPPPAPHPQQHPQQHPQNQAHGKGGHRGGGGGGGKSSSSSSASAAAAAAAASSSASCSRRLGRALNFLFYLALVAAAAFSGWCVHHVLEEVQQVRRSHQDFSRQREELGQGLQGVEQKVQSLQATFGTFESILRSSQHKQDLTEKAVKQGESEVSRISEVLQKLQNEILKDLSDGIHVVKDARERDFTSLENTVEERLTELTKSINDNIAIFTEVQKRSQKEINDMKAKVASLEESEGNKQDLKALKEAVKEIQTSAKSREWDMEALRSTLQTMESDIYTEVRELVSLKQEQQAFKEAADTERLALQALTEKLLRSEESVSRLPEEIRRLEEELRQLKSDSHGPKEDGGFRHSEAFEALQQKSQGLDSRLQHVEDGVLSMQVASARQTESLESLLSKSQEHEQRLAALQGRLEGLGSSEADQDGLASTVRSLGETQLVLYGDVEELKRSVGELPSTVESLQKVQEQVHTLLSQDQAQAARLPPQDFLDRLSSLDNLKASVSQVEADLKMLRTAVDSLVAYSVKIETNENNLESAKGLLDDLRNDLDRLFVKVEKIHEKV

[3] = biological target: cysteines in MDA-MB-231 and Ramos cells (Homo sapiens, UniProt Q15118)
Chain of cysteines in MDA-MB-231 and Ramos cells (Homo sapiens, UniProt Q15118) (Q15118 29-436): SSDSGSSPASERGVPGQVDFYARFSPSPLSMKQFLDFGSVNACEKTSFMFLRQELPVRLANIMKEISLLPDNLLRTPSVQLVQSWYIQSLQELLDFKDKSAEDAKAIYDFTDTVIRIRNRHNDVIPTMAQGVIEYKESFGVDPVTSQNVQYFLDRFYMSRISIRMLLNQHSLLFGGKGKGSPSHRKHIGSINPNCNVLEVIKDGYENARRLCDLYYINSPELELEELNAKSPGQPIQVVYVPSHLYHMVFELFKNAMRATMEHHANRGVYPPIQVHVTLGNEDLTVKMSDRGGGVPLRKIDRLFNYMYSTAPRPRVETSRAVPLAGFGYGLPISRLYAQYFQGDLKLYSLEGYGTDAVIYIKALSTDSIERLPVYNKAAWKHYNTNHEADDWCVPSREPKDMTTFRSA

[4] = biological target: T2, cysteines in MDA-MB-231 and Ramos cells (Homo sapiens, UniProt Q9NY27); conditions: 200 μM, insitu
T2 sequence (Q9NY27 1-417): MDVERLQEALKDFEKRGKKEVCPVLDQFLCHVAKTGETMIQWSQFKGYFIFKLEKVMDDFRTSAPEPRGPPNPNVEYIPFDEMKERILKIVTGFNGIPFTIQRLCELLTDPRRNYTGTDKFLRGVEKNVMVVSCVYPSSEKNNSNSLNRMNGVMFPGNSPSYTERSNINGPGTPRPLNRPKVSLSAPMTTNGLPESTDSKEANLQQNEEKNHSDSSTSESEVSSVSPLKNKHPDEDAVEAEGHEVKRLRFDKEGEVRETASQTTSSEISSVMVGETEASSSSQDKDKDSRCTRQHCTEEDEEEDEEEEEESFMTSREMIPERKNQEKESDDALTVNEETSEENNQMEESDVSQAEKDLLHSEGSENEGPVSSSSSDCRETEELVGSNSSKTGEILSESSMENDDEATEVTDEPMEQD

[5] = biological target: cysteines in MDA-MB-231 and Ramos cells (Homo sapiens, UniProt Q9Y676)
[6] = biological target: cysteines in MDA-MB-231 and Ramos cells (Homo sapiens, UniProt Q9Y6G9); conditions: for isoTOP-ABPP ratio Q9Y6G9_C51: ramos
Chain of cysteines in MDA-MB-231 and Ramos cells (Homo sapiens, UniProt Q9Y6G9) (Q9Y6G9 whole entry): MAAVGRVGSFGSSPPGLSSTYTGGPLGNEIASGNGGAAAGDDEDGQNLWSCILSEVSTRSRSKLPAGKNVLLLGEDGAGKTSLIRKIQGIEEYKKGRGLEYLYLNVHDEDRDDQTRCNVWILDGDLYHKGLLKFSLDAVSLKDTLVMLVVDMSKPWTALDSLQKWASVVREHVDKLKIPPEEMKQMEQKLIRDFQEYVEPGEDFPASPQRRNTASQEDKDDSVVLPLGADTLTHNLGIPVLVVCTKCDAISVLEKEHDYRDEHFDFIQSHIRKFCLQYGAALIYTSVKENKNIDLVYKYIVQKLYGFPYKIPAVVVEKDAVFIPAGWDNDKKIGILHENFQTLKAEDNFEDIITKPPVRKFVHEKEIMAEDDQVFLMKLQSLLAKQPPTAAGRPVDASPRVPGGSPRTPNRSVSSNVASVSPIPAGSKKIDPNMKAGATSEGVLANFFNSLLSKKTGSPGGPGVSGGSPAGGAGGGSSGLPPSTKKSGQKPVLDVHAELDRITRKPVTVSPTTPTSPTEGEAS

[7] = biological target: T3, cysteines in MDA-MB-231 and Ramos cells (Homo sapiens, UniProt Q96P48); conditions: 200 μM, insitu
T3 sequence (Q96P48 1-1450): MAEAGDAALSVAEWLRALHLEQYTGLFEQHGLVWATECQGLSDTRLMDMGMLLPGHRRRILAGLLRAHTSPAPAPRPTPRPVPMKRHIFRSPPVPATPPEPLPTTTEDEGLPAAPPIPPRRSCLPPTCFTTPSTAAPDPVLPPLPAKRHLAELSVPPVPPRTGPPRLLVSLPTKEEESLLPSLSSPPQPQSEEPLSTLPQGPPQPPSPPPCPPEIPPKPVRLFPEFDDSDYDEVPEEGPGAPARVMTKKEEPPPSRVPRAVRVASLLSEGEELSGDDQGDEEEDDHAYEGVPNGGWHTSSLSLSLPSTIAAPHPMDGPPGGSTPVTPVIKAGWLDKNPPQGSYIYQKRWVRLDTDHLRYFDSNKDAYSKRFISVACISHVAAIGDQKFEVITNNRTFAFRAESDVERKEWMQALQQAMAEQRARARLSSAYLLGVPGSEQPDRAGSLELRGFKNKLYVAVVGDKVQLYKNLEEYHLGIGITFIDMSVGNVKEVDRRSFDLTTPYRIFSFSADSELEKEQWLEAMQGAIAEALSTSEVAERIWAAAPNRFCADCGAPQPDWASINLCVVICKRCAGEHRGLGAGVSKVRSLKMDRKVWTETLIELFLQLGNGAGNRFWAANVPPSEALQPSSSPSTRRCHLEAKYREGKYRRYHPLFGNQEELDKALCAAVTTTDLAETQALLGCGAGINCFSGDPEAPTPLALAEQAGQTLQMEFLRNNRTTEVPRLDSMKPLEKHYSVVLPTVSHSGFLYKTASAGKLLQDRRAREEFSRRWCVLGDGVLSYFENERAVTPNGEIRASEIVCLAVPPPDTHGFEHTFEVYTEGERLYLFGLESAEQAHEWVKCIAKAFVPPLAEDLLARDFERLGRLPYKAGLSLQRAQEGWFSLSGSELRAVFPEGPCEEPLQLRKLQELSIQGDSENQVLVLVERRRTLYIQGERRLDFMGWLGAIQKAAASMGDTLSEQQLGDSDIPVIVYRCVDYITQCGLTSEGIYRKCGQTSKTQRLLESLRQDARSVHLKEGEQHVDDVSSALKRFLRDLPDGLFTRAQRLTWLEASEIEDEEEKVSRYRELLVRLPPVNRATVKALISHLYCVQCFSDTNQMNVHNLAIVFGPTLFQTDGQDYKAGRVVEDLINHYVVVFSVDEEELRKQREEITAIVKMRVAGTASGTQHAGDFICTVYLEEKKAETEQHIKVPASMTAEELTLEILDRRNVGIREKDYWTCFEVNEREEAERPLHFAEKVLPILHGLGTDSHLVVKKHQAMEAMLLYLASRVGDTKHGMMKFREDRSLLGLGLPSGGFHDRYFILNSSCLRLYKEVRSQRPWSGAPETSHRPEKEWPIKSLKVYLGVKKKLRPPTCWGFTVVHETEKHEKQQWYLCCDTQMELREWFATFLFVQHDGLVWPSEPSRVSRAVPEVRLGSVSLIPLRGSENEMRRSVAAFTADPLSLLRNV

[8] = biological target: cysteines in MDA-MB-231 and Ramos cells (Homo sapiens, UniProt Q14137)
Chain of cysteines in MDA-MB-231 and Ramos cells (Homo sapiens, UniProt Q14137) (Q14137 whole entry): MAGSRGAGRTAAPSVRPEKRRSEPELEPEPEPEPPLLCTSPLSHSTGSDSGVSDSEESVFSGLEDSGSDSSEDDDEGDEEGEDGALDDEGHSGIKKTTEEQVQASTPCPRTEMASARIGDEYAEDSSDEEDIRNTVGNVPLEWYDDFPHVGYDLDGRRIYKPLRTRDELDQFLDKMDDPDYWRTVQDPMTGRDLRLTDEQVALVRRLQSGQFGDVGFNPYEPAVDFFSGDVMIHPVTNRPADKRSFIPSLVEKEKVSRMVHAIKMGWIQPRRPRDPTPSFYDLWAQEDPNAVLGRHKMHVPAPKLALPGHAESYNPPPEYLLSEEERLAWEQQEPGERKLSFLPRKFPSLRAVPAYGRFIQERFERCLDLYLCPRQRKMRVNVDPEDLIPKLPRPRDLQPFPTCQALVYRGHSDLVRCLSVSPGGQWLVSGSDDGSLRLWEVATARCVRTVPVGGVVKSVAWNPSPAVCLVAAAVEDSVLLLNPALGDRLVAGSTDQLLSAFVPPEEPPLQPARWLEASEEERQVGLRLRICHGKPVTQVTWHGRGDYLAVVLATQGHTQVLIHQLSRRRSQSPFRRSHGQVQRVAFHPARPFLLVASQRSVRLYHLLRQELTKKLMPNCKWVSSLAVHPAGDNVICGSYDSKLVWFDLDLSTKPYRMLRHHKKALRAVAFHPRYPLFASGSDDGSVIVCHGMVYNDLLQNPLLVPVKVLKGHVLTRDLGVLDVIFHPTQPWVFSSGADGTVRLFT

Chain of cysteines in MDA-MB-231 and Ramos cells (Homo sapiens, UniProt Q00765) (Q00765 whole entry): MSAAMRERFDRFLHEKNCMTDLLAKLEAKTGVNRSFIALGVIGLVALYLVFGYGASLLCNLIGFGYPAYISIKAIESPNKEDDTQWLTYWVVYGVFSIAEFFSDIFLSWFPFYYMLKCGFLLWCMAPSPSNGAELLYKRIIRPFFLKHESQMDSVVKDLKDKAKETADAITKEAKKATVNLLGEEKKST

isoTOP-ABPP ratio Q00765_C18 ([1]; 200 μM, insitu, 231): 20.0
isoTOP-ABPP ratio Q07065_C100 [2]: 20.0
isoTOP-ABPP ratio Q15118_C71 ([3]; 200 μM, insitu, 231): 20.0
isoTOP-ABPP ratio Q9NY27_C22 [4]; 231: 20.0
isoTOP-ABPP ratio Q9Y676_C128 ([5]; 200 μM, insitu, 231): 2.0
SMILES: CC1CCc2ccccc2N1C(=O)CCl (stereo not shown) [compound 45]

isoTOP-ABPP ratio Q9NY27_C22 [4]; 231: 2.2
isoTOP-ABPP ratio Q9Y676_C128 ([5]; 200 μM, insitu, 231): 1.0
SMILES: O=C(CCl)Nc1cccc2ncccc12 [compound 51]

isoTOP-ABPP ratio Q15118_C71 ([3]; 200 μM, insitu, 231): 1.3
isoTOP-ABPP ratio Q9NY27_C22 [4]; 231: 1.0
isoTOP-ABPP ratio Q9Y676_C128 ([5]; 200 μM, insitu, 231): 1.0
SMILES: C=CC(=O)Nc1cc(F)c(N2CCN(C(=O)OC(C)(C)C)CC2)c(F)c1 [compound 38]

isoTOP-ABPP reactivity Q00765_018 REEP5 ([1]; 200 μM, insitu, 231): 2.7
isoTOP-ABPP reactivity Q15118_C71 PDK1 ([3]; 200 μM, insitu, 231): 20.0
isoTOP-ABPP reactivity Q9Y676_C128 MRPS18B ([5]; 200 μM, insitu, 231): 1.0
isoTOP-ABPP reactivity Q9Y6G9_C51 DYNC1LI1 ([6]; 200 μM, insitu, 231): 4.1
SMILES: COc1cc2c(cc1OC)CN(C(=O)CCl)CC2 [compound 8]

isoTOP-ABPP ratio Q96P48_C900 [7]; 231: 1.1
isoTOP-ABPP ratio Q9Y6G9_C51 ([6]; 200 μM, insitu): 1.6
SMILES: C=CC(=O)N(Cc1cccnc1)c1cc(C(F)(F)F)cc(C(F)(F)F)c1 [compound 31]

isoTOP-ABPP ratio Q00765_C18 ([1]; 200 μM, insitu, 231): 1.2
isoTOP-ABPP ratio, cysteine Q07065_C100 [2]: 1.6
isoTOP-ABPP ratio, cysteine Q14137_C404 ([8]; 200 μM, insitu, 231): 1.1
isoTOP-ABPP ratio Q15118_C71 ([3]; 200 μM, insitu, 231): 1.6
isoTOP-ABPP ratio, cysteine Q96P48_C900 [7]; 231: 1.2
isoTOP-ABPP ratio Q9NY27_C22 ([4]; ramos): 1.5
isoTOP-ABPP ratio Q9Y6G9_C51 ([6]; 200 μM, insitu): 1.5
SMILES: O=C(CCl)NCCc1c[nH]c2ccccc12 [compound 13]

isoTOP-ABPP reactivity Q07065_C100 CKAP4 [2]: 15.4
SMILES: O=C(CCl)N1CCC(Cc2ccccc2)CC1 [compound 9]

isoTOP-ABPP reactivity Q00765_018 REEP5 ([1]; 100 μM in situ 231): 20.0
isoTOP-ABPP reactivity Q14137_C404 BOP1 ([8]; 100 μM in situ 231): 1.2
isoTOP-ABPP reactivity Q15118_C71 PDK1 ([3]; 100 μM in situ 231): 20.0
isoTOP-ABPP reactivity Q9Y676_C128 MRPS18B ([5]; 100 μM in situ 231): 2.3
isoTOP-ABPP reactivity Q9Y6G9_C51 DYNC1LI1 ([6]; 100 μM in situ 231): 3.5
SMILES: COc1ccc(C2CC(c3cccs3)=NN2C(=O)CCl)cc1 (stereo not shown) [compound 4]

isoTOP-ABPP ratio Q00765_C18 ([1]; 200 μM, insitu, ramos): 1.4
isoTOP-ABPP ratio Q14137_C404 ([8]; 200 μM, insitu, ramos): 1.5
isoTOP-ABPP ratio Q15118_C71 ([3]; 200 μM, insitu, ramos): 1.8
isoTOP-ABPP ratio Q96P48_C900 ([7]; ramos): 1.1
isoTOP-ABPP ratio Q9NY27_C22 ([4]; ramos): 1.7
SMILES: O=C(CCl)N1CCN(CC(=O)N2CCOCC2)CC1 [compound 29]
